According to US3955959A, “Herbicide for use in transplanted rice” (priority 1974, dated 1976):

What was measured:
[1] = tested on: transplanted rice; assay: Example 1 field test, rice injury; type: in vivo, rice (Watanabe variety)
Excerpt: In the field test 48 day-old seedlings (Watanabe variety) were transplanted to plots 2.5 × 6 m. seeded with the weed seeds indicated in Table 1. At 5 and 10 DAT periods, the herbicides were applied to the plants (now at the 1.2 and 2.0 leaf stage, respectively, of grass weed) at the indicated rate in kilograms per hectare (kg/ha). The weed control and rice injury results for 3 replications are reported in percentages as of the indicated times of observation. The percentages given in the "Perennials" column are based on the weight of the weeds at 63 DAT, i.e., 42 gms/3.6 m^2 for the weedy check.

[2] = tested on: Sedges: Cd, Ci, Fl (Cyperus difformis, Cyperus iria, Fimbristylis littoralis); assay: Example 3 field test on Dapog rice, weed control, Munoz, Philippines; type: in vivo; conditions: obs. 42 DAT
Excerpt: Treatments were replicated four times.

[3] = tested on: Obw (other broadleaf weeds); assay: Example 5 field test, weed control, JAAPR, Japan; type: in vivo
Protocol: In the tests described in the tables below, the herbicides were formulated and used in granular form in conventional manner. […] The commercial herbicide used was a granular product having 5% active ingredient.
In the field tests of the herbicide of this invention with transplanted rice, the rice seedlings were grown in conventional manner, by seeding the rice in a typical seedbed of sandy loam to clay soil of the country wherein the test was conducted. For laboratory and greenhouse work the seedlings were obtained by seeding rice in a mixture of soil, e.g., Ray silt loam, and peat in wood flats. For purposes of testing the herbicides on younger rice seedlings (infant or Dapog) the rice was usually allowed to grow for 6-15 days before lifting for transplanting. Older (ordinary) rice plants were usually grown for a period of about 2-3 weeks, or as much as about 7 weeks before lifting. Since the period of growth is dependent upon climatic conditions, a better measure of when to transplant the rice seedling is the leaf stage of growth; for infant or Dapog rice the seedling is lifted at the 1.5-2 leaf stage of growth, and for ordinary seedlings at the 2.5-5 leaf stage. The seedlings were then transplanted to the test plots for evaluation of the herbicide for injury against weed species present with the transplanted rice. The herbicides were then applied to the growth medium of the weeds and transplant rice, either preemergent or postemergent with respect to the weeds and postemergent with respect to the transplanted rice. Application times are designated in the tables as "DAT", meaning "days after transplant". Application rates given in the tables refer to the amount of active ingredient used.
The rice seedlings were grown to the 1.7 leaf stage for infant seedlings and to the 5.5 leaf stage for ordinary seedlings. Two days after puddling the soil in which the seedlings were to be transplanted, both infant and ordinary seedlings were transplanted into plots 8.5 m^2.
The weed symbol "Obw" represents "other broadleaf weeds" of unspecified identity.

[4] = tested on: Lp (Lindernia pyxidaria); assay: Example 6 weed control, JAAPR, Japan; type: in vivo
Protocol: (§1) In this example, the efficacy of Herbicide A is presented for a variety of weeds in the presence of ordinary and infant transplant rice. In this example, tests were conducted at the said JAAPR Lab at different times of the year. "Early season" transplants were made in April and "Normal season" transplants were made in July. The size of the transplants at the respective seasons were: Season Seedling Type Plant Height (cm) Leaf Stage ______________________________________ Early Ordinary 16.5 4.5 Early Infant 9.1 2.4 Normal Ordinary 41.7 5.3 Normal Infant 14.7 1.9 ______________________________________
(§2) Duplicate treatments were used. At the time of application of the herbicide, the status of the grass (EC) was as follows: […]

[5] = tested on: Mv (Monochoria vaginalis); assay: Example 6 weed control, JAAPR, Japan; type: in vivo
Protocol: as §1, §2

[6] = tested on: Sh (Scirpus hotarui); assay: Example 6 weed control, JAAPR, Japan; type: in vivo; conditions: Normal season
Protocol: as §1, §2

[7] = tested on: Sp (Sagittaria pygmaea); assay: Example 6 weed control, JAAPR, Japan; type: in vivo; conditions: Normal season
Protocol: as §1, §2

[8] = tested on: Ce (Cyperus esculentus); assay: Example 7 greenhouse preemergence activity; type: in vivo
Protocol: In a further comparative study of the preemergence activity of Herbicides A and B, a variety of weeds and upland direct-seeded rice were tested under greenhouse conditions. The present invention is not concerned with the use of Herbicide A in direct-seeded rice. The primary purpose of the experimental work in this example is to compare relative herbicidal activity of Herbicides A and B against the weeds shown in Table 7; most of these weeds were not available for tests with transplanted rice. Although the relative selectivity of these herbicides in upland rice is also evident, that aspect of the tests is more or less incidental to the purpose of this example.
In this example, rice seeds and seeds of the weeds shown in Table 7 were sown in Ray silt loam soil at a depth of 0.5 inch (1.27 cm) in containers for the soil in a greenhouse. Herbicides A and B were applied to the surface of the soil at a spray volume equivalent to 20 gals/acre (187.1 liters/hectare), followed by 0.5 in (1.27 cm) of overhead irrigation. Temperature and relative humidity in the greenhouse were on the order of 85°F (29°C) and 75%, respectively. Observations were made at 21-28 days after seeding.
In Table 7 are shown the average rates of herbicide required to cause a growth reduction of 85% of the weeds ("GR85 "), and the average rate of herbicide required to cause a growth reduction of 15% ("GR15 ") of the rice plants (Oryza sativa, "Os", variety Bluebelle).

[9] = tested on: weeds in transplanted rice; assay: Field tests / general herbicidal activity in transplanted rice; type: in vivo
[10] = Early season, ordinary, 1.0 kg/ha, 3 DAT
[11] = Early season, ordinary, 1.0 kg/ha, 12 DAT
[12] = Early season, ordinary, 1.0 kg/ha, -2 DAT
[13] = Early season, ordinary, .5 kg/ha, 3 DAT
[14] = Early season, ordinary, .5 kg/ha, 12 DAT
[15] = Early season, ordinary, .5 kg/ha, -2 DAT
[16] = Normal season, infant, 1.0 kg/ha, 3 DAT
[17] = Normal season, infant, 1.0 kg/ha, 7 DAT
[18] = Normal season, infant, 1.0 kg/ha, -2 DAT
[19] = Normal season, infant, .5 kg/ha, 3 DAT
[20] = Normal season, infant, .5 kg/ha, 7 DAT
[21] = Normal season, infant, .5 kg/ha, -2 DAT
[22] = Normal season, ordinary, 1.0 kg/ha, 3 DAT
[23] = Normal season, ordinary, 1.0 kg/ha, 7 DAT
[24] = Normal season, ordinary, 1.0 kg/ha, -2 DAT
[25] = Normal season, ordinary, .5 kg/ha, 3 DAT
[26] = Normal season, ordinary, .5 kg/ha, 7 DAT
[27] = Normal season, ordinary, .5 kg/ha, -2 DAT

SMILES: CCCCOCN(C(=O)CCl)c1c(C)cccc1C(C)(C)C [Herbicide A, n-(butoxymethyl)-6'-tert-butyl-2-chloro-o-acetotoluidide]
- % Rice Injury ([1]; 5 DAT, 1.0 kg/ha, obs. 21 DAT): 5%
- % Rice Injury ([1]; 5 DAT, 1.0 kg/ha, obs. 42 DAT): 0%
- % Rice Injury ([1]; 5 DAT, 2.0 kg/ha, obs. 21 DAT): 10%
- % Rice Injury ([1]; 5 DAT, 2.0 kg/ha, obs. 42 DAT): 0%
- % Rice Injury ([1]; 5 DAT, .25 kg/ha, obs. 21 DAT): 0%
- % Rice Injury ([1]; 5 DAT, .25 kg/ha, obs. 42 DAT): 0%
- % Rice Injury ([1]; 5 DAT, .5 kg/ha, obs. 21 DAT): 0%
- % Rice Injury ([1]; 5 DAT, .5 kg/ha, obs. 42 DAT): 0%
- % Rice Injury ([1]; 10 DAT, 1.0 kg/ha, obs. 21 DAT): 0%
- % Rice Injury ([1]; 10 DAT, 1.0 kg/ha, obs. 42 DAT): 0%
- % Rice Injury ([1]; 10 DAT, 2.0 kg/ha, obs. 21 DAT): 10%
- % Rice Injury ([1]; 10 DAT, 2.0 kg/ha, obs. 42 DAT): 0%
- % Rice Injury ([1]; 10 DAT, .25 kg/ha, obs. 21 DAT): 0%
- % Rice Injury ([1]; 10 DAT, .25 kg/ha, obs. 42 DAT): 0%
- % Rice Injury ([1]; 10 DAT, .5 kg/ha, obs. 21 DAT): 0%
- % Rice Injury ([1]; 10 DAT, .5 kg/ha, obs. 42 DAT): 0%
- early season injury to rice ([1]; Example 1, outgrown): slight early season injury to rice was outgrown
- % Weed control, Sedges (Cd, Ci, Fl) ([2]; 5 DAT, 1.0 kg/ha): 100%
- % Weed control, Sedges (Cd, Ci, Fl) ([2]; 5 DAT, 2.0 kg/ha): 100%
- % Weed control, Sedges (Cd, Ci, Fl) ([2]; 5 DAT, .25 kg/ha): 100%
- % Weed control, Sedges (Cd, Ci, Fl) ([2]; 5 DAT, .5 kg/ha): 100%
- % Weed control, Sedges (Cd, Ci, Fl) ([2]; 14 DAT, 1.0 kg/ha): 70%
- % Weed control, Sedges (Cd, Ci, Fl) ([2]; 14 DAT, 2.0 kg/ha): 70%
- % Weed control, Sedges (Cd, Ci, Fl) ([2]; 14 DAT, .25 kg/ha): 0%
- % Weed control, Sedges (Cd, Ci, Fl) ([2]; 14 DAT, .5 kg/ha): 70%
- control of Obw in words ([3]; 0.25 kg/ha both plots, 1.0 kg/ha ordinary): controlled completely
- % Weed Control (Obw) ([3]; 1.0 kg/ha, 15 DAT, infant seedlings): 96%
- % Weed Control (Obw) ([3]; 1.0 kg/ha, 15 DAT, ordinary seedlings): 100%
- % Weed Control (Obw) ([3]; .25 kg/ha, 2 DAT, infant seedlings): 100%
- % Weed Control (Obw) ([3]; .25 kg/ha, 2 DAT, ordinary seedlings): 100%
- % Weed Control (Obw) ([3]; .5 kg/ha, 7 DAT, infant seedlings): 83%
- % Weed Control (Obw) ([3]; .5 kg/ha, 7 DAT, ordinary seedlings): 82%
- % Weed Control (Lp) [4, 10]: 100%
- % Weed Control (Lp) [4, 11]: 95%
- % Weed Control (Lp) [4, 12]: 100%
- % Weed Control (Lp) [4, 13]: 100%
- % Weed Control (Lp) [4, 14]: 85%
- % Weed Control (Lp) [4, 15]: 100%
- % Weed Control (Lp) [4, 16]: 100%
- % Weed Control (Lp) [4, 17]: 100%
- % Weed Control (Lp) [4, 18]: 100%
- % Weed Control (Lp) [4, 19]: 100%
- % Weed Control (Lp) [4, 20]: 100%
- % Weed Control (Lp) [4, 21]: 100%
- % Weed Control (Lp) [4, 22]: 100%
- % Weed Control (Lp) [4, 23]: 100%
- % Weed Control (Lp) [4, 24]: 100%
- % Weed Control (Lp) [4, 25]: 100%
- % Weed Control (Lp) [4, 26]: 100%
- % Weed Control (Lp) [4, 27]: 100%
- % Weed Control (Mv) [5, 10]: 100%
- % Weed Control (Mv) [5, 11]: 95%
- % Weed Control (Mv) [5, 12]: 100%
- % Weed Control (Mv) [5, 13]: 95%
- % Weed Control (Mv) [5, 14]: 95%
- % Weed Control (Mv) [5, 15]: 95%
- % Weed Control (Mv) [5, 16]: 100%
- % Weed Control (Mv) [5, 17]: 85%
- % Weed Control (Mv) [5, 18]: 100%
- % Weed Control (Mv) [5, 19]: 100%
- % Weed Control (Mv) [5, 20]: 70%
- % Weed Control (Mv) [5, 21]: 100%
- % Weed Control (Mv) [5, 22]: 100%
- % Weed Control (Mv) [5, 23]: 100%
- % Weed Control (Mv) [5, 24]: 100%
- % Weed Control (Mv) [5, 25]: 100%
- % Weed Control (Mv) [5, 26]: 95%
- % Weed Control (Mv) [5, 27]: 100%
- % Weed Control (Sh) ([6]; infant, 1.0 kg/ha, 3 DAT): 100%
- % Weed Control (Sh) ([6]; infant, 1.0 kg/ha, 7 DAT): 100%
- % Weed Control (Sh) ([6]; infant, 1.0 kg/ha, -2 DAT): 100%
- % Weed Control (Sh) ([6]; infant, .5 kg/ha, 3 DAT): 100%
- % Weed Control (Sh) ([6]; infant, .5 kg/ha, 7 DAT): 100%
- % Weed Control (Sh) ([6]; infant, .5 kg/ha, -2 DAT): 100%
- % Weed Control (Sh) ([6]; ordinary, 1.0 kg/ha, 3 DAT): 100%
- % Weed Control (Sh) ([6]; ordinary, 1.0 kg/ha, 7 DAT): 100%
- % Weed Control (Sh) ([6]; ordinary, 1.0 kg/ha, -2 DAT): 100%
- % Weed Control (Sh) ([6]; ordinary, .5 kg/ha, 3 DAT): 100%
- % Weed Control (Sh) ([6]; ordinary, .5 kg/ha, 7 DAT): 100%
- % Weed Control (Sh) ([6]; ordinary, .5 kg/ha, -2 DAT): 100%
- % Weed Control (Sp) ([7]; infant, 1.0 kg/ha, 3 DAT): < 40%
- % Weed Control (Sp) ([7]; infant, 1.0 kg/ha, 7 DAT): < 40%
- % Weed Control (Sp) ([7]; infant, 1.0 kg/ha, -2 DAT): < 40%
- % Weed Control (Sp) ([7]; infant, .5 kg/ha, 3 DAT): < 40%
- % Weed Control (Sp) ([7]; infant, .5 kg/ha, 7 DAT): < 40%
- % Weed Control (Sp) ([7]; infant, .5 kg/ha, -2 DAT): < 40%
- % Weed Control (Sp) ([7]; ordinary, 1.0 kg/ha, 3 DAT): < 40%
- % Weed Control (Sp) ([7]; ordinary, 1.0 kg/ha, 7 DAT): < 40%
- % Weed Control (Sp) ([7]; ordinary, 1.0 kg/ha, -2 DAT): < 40%
- % Weed Control (Sp) ([7]; ordinary, .5 kg/ha, 3 DAT): < 40%
- % Weed Control (Sp) ([7]; ordinary, .5 kg/ha, 7 DAT): < 40%
- % Weed Control (Sp) ([7]; ordinary, .5 kg/ha, -2 DAT): < 40%
- resistance of Ce [8]: resistant
- latest/optimum application stage of weeds ([9]; field tests): 2-2.5 leaf stage
- control of undesirable vegetation ([9]; monocotyledons and dicotyledons): fair to excellent control
- herbicidal activity in transplanted rice ([9]; presence of transplanted rice): superior herbicidal activity
- selectivity vs Herbicide B in transplant rice ([9]; transplant rice cultures): more selective
